The results in this text go back to US4091213A, “7-Cyclizedamino-3-heterothiomethyl cephalosporin derivatives” (Bristol-Myers Company, priority 1977, dated 1978).

The nature of data set [1]: Paper chromatograms of rat urine following IM administration, antibiotically active metabolites. The data set is classed as in vivo. The following applies: urine 0-2 and 2-4 hours; for antibiotically active metabolites in urine (spots on paper chromatogram): system No. 9 (butyl acetate:n-butanol:glacial acetic acid:H2O). As to the method: Paper chromatograms were run on rat urine collected between 0 and 2 and between 2 and 4 hours following IM administration of BL-S1057, 1058 and 643, for the detection of antibiotically active metabolites using descending chromatography with system No. 9 (butyl acetate:n-butanol:glacial acetic acid:H2 O = 80:15:40:24).

A short description of data set [2]: Paper strip chromatography. The data set is classed as physicochemical. The note with it: 37° C.; 0 and 1 hour; 0.2 mg./ml.
A short description of data set [3]: Liquid chromatography, hydrolysis in buffer. Type of data set: physicochemical. The note with it: pH 6 buffer; 1 mg./ml.; 0 hours. Here is the method:
f. Liquid chromatography = 100% hydrolyzed in pH 6.1 buffer within 1 hour at room temperature (concentration = 1 mg./ml.)
d. Liquid chromatography (1 mg./ml. in pH 6 buffer)

SMILES strings stand for the structures.

As for `Cc1nnc(SCC2=C(C(=O)O)N3C(=O)C(NC(=O)[C@H](N)c4ccc(O)cc4)C3SC2)s1` (some centres unmarked) [BL-S643, reference compound], the “antibiotically active metabolites in urine (spots on paper chromatogram)” value (“antibiotically active metabolites” below) in data set [1] was “A single, identical spot was observed”.

For `Cc1nnc(SCC2=C(C(=O)O)N3C(=O)C(N4C(=O)[C@@H](c5ccc(O)cc5)NC4c4ccco4)C3SC2)s1` (some centres unmarked) [BL-S1057], in data set [1], the “hydrolysis of the derivatives to the parent compound (BL-S643)” value is “complete hydrolysis” and the “antibiotically active metabolites” value is on record as “A single, identical spot was observed”. In data set [2], the Paper strip chromatography entry was “Primarily 1 zone at Rf of BL-S643”.

In the case of `Cc1nnc(SCC2=C(C(=O)O)N3C(=O)C(N4C(=O)[C@@H](c5ccc(O)cc5)NC4c4ccc(S(=O)(=O)O)o4)C3SC2)s1` (some centres unmarked) [BL-S1058], in data set [1], the “hydrolysis of the derivatives to the parent compound (BL-S643)” value is reported as “complete hydrolysis” and the “antibiotically active metabolites” value is on record as “A single, identical spot was observed”. The “% Hydrolyzed (liquid chromatography)” value in data set [3] turned out to be 25.4%. The Paper strip chromatography result in data set [2] was “Primarily 1 zone at Rf of BL-S643 at 0 and 1 hour at 37 °C (concentration is 0.2 mg./ml.) There is evidence of a second zone”.
